From paper PMC11982978, “Cancer hotspot mutations rewire ERK2 specificity by selective exclusion of docking interactions” (The Journal of Biological Chemistry, 2025)
pIC50: −log10 of the molar value. “And” between values parts separate entries of the source, which are not always exact repeats. Identical values can stand only once. One block for each compound: values may come before it.

Tests used:
[1] = biological target: T1, ERK2 WT (Mus musculus, UniProt P63085); test: Competitive peptide kinase assay (D-peptide inhibition), ERK2 WT; format: biochemical; conditions: Table 2, 5 μM D-site dependent reporter peptide, 10 nM ERK2, 10 μM ATP, pH 7.4, fluorescence, mean of three independent replicates
T1 construct: His6; made in house; host or cells: E. coli BL21(DE3), co-expressed with GST-MEK1ΔN3
T1 sequence (P63085 whole entry): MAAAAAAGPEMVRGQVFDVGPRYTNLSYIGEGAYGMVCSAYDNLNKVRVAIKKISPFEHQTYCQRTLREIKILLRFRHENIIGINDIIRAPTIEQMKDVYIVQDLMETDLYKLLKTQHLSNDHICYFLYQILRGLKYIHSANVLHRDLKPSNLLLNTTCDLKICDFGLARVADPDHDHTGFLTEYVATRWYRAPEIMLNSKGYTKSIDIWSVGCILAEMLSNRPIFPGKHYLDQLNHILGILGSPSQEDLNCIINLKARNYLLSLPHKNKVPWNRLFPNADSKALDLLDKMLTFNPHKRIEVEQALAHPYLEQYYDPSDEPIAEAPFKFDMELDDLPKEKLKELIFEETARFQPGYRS
Description: We determined relative binding affinities for D-peptides from their potency as competitive inhibitors of WT or mutant ERK2 activity on a D-site-dependent reporter substrate peptide (Table S1, Fig. 3A, S3).
Competitive peptide kinase assays were performed with a D-site dependent MAPK reporter substrate peptide (AssayQuant Technologies Inc, #AQT0376) as we reported previously ([15]). Briefly, 5 μM of reporter peptide was mixed with various concentrations of D-peptides in reaction buffer (54 mM HEPES [pH 7.4], 1.2 mM DTT, 0.01% Brij-35, 1% glycerol, 0.2 mg/ml BSA, and 10 mM MgCl2). […] Phosphorylation of the reporter peptide was measured by fluorescence (λex 360 nm, λem 485 nm) in 90 s intervals over 21 min in a Spectra M5 plate reader. Rates were calculated from the linear portion of the reaction progress curve, and data were normalized to maximum (samples lacking competitor peptide) and minimum (control reactions lacking kinase) values. Normalized rates were plotted against D-peptide concentration and fitted into a sigmoidal dose-response curve to determine the IC50 values using GraphPad Prism (Version 9.3.0).

[2] = test system: WT ERK2; test: Y2H D-site library screen, WT ERK2; format: cell-based, rat; set-up: key: ES = slope of ln(Ft/F0) vs number of yeast population doublings; conditions: mutant ES is the combined average ES from the D319N and E320K screens
Description: (§1) To examine how cancer-associated CD site mutations affect the scope of ERK2 docking interactions, we adopted a Y2H strategy that we previously applied to define the D-site interactome of WT ERK2 ([15]). This system reports on interactions between ERK2 and a fragment of its substrate ELK1 that harbors a docking site essential for binding (Fig. 1C). The system thus evaluates the binding of potential sequences by substituting them for the native ELK1 docking site. We transformed Y2H strains with a bait plasmid expressing the Gal4 DNA-binding domain (DBD) fused to WT or CD mutant forms of rat ERK2 (R133K, D319N or E320K, equivalent respectively to human R135K, D321N and E322K), along with a prey plasmid expressing Gal4 activation domain (AD) fused to the ELK1 fragment harboring various docking site sequences. We then assayed these strains for growth on solid media under non-selective (+His) and selective conditions (−His) to detect interactions (Fig. 1D).
(§2) We previously used the Y2H system to screen WT ERK2 against a pooled library of 11,756 ELK1 variants incorporating potential docking sites from the human proteome ([15]). To identify interacting sequences either gained or lost upon ERK2 CD site mutation, we screened the same library against ERK2^D319N and ERK2^E320K. Yeast expressing ERK2 mutant bait plasmids were transformed with the ELK1 library pool and subjected to competitive growth under selective (−His) and non-selective conditions (+His) in parallel. Cultures were sampled periodically over ∼7 population doublings. The DNA sequence encoding the variable docking site region was PCR amplified and analyzed by next-generation sequencing (Fig. 2A, Dataset S1). The change in sequence abundance over time was fitted to an exponential function to assign an enrichment score (ES) to each docking site, where a higher ES indicates a greater increase in sequence abundance as the population grows. A significant enrichment of docking site sequences was observed only under selective conditions (Figs. 2B, S1). For each mutant, we observed generally good reproducibility across three independently conducted screens albeit with some sequences enriched in only a single replicate (Fig. S2, A and B). Average ES scores for the E320K and D319N mutant screens were better correlated with each other (R = 0.83) than were average ES scores for either mutant compared to WT ERK2 (R = 0.67 for WT versus D319N, R = 0.63 for WT versus E320K) (Fig. S2C).
(§3) To compare sequences selected by CD mutants with those selected by WT ERK2, we defined those sequences with an ES equal to or higher than three standard deviations from the mean (Z > 3) as hits. Using this cutoff, we obtained 121, 127, and 153 hits sequences from the WT, D319N, and E320K screens, respectively (Fig. 2C, Dataset S2).
(§4) Yeast harboring pGBT9-ERK2^E320K or pGBT9-ERK2^D319N were transformed with the pGADGH-ELK1 D-site library plasmid pool. Transformants (10–40 colonies per library component) were suspended in SD-Leu-Trp media, diluted to an OD600 of 0.1, and cultured in a shaking incubator at 30 °C to an OD600 of 1.0. The resulting culture was used to initiate a competitive selection screen. Cell growth, sample collection and data analysis were performed exactly as described previously for WT ERK2 ([15]). The frequency (F) of each D-site sequence at a given time point (t) was calculated by dividing the number of reads by the total read count for all sequences. For each sequence, a plot of ln(Ft/F0) as a function of the number of yeast population doublings was fit to a line, and the enrichment score (ES) for that sequence was defined as the slope of this line. Illumina sequencing reads, calculated ES, and Z scores for each screen are provided in Dataset S1.

[3] = test system: WT ERK2; conditions: selective conditions (-His); hits Z > 3; average of three screens; cited from earlier work
Description: Supplement mmc2.xlsx, sheet "WT Hits" | column: Z-score

[4] = test system: ERK2 D319N; test: Y2H D-site library screen, ERK2 D319N; format: cell-based, rat; set-up: key to ES, +His / ES, -His: ES = slope of ln(Ft/F0) vs number of yeast population doublings
Description: as §1, §2, §3, §4

[5] = test system: ERK2 E320K; test: Y2H D-site library screen, ERK2 E320K; format: cell-based, rat; set-up: key to ES, +His / ES, -His: ES = slope of ln(Ft/F0) vs number of yeast population doublings
Description: as §1, §2, §3, §4

[6] = Average of 3 Replicate Screens, non-selective
[7] = Average of 3 Replicate Screens, selective
[8] = Average of 3 Replicate Experiments, non-selective
[9] = Average of 3 Replicate Experiments, selective

- pIC50 [1]: 4.39
Compound: CC[C@H](C)[C@H](NC(=O)[C@H](C)NC(=O)[C@@H](N)Cc1ccc(O)cc1)C(=O)N[C@@H](CCCNC(=N)N)C(=O)N[C@@H](C)C(=O)N[C@@H](CCCNC(=N)N)C(=O)N[C@@H](CCCNC(=N)N)C(=O)N[C@@H](CCC(N)=O)C(=O)N[C@@H](CC(C)C)C(=O)N1CCC[C@H]1C(=O)N[C@@H](CCCNC(=N)N)C(=O)N[C@@H](CC(C)C)C(=O)N[C@@H](C)C(=O)N[C@H](C(=O)N[C@@H](CO)C(=O)N[C@@H](CC(=O)O)C(=O)O)C(C)C [ISG20 peptide G6Q]

- pIC50 [1]: 3.72
Compound: CC(C)C[C@H](NC(=O)[C@H](CCCNC(=N)N)NC(=O)[C@@H]1CCCN1C(=O)[C@H](CC(C)C)NC(=O)CNC(=O)[C@H](CCCNC(=N)N)NC(=O)[C@H](CCCNC(=N)N)NC(=O)[C@H](C)NC(=O)[C@H](CCCNC(=N)N)NC(=O)[C@H](CC(N)=O)NC(=O)[C@H](C)NC(=O)[C@@H](N)Cc1ccc(O)cc1)C(=O)N[C@@H](C)C(=O)N[C@H](C(=O)N[C@@H](CO)C(=O)N[C@@H](CC(=O)O)C(=O)O)C(C)C [ISG20 peptide I1N]

- pIC50 [1]: 3.70
Compound: CC[C@H](C)[C@H](NC(=O)[C@H](CCCNC(=N)N)NC(=O)[C@H](C)NC(=O)[C@@H](N)Cc1ccc(O)cc1)C(=O)N[C@@H](C)C(=O)N[C@@H](CCCNC(=N)N)C(=O)N[C@@H](CCCNC(=N)N)C(=O)NCC(=O)N[C@@H](CC(C)C)C(=O)N1CCC[C@H]1C(=O)N[C@@H](CCCNC(=N)N)C(=O)N[C@@H](CC(C)C)C(=O)N[C@@H](C)C(=O)N[C@H](C(=O)N[C@@H](CO)C(=O)N[C@@H](CC(=O)O)C(=O)O)C(C)C [ISG20 peptide I1R/R2I]

Compound: CLSWKRMAGIFFLP [GLB1L3, D-site 14-mer in ELK1 Y2H prey]
- WT ES - mutant ES [2]: 0.781
- Z-score (ES) of hit sequences, WT ERK2 Y2H screen [3]: 14.12

Compound: GSRCARIFRLVLQK [POLR3C, D-site 14-mer in ELK1 Y2H prey]
- WT ES - mutant ES [2]: 0.285
- Z-score (ES) of hit sequences, WT ERK2 Y2H screen [3]: 6.39

Compound: GTRQVKNKGVIVKK [MEIKIN, D-site 14-mer in ELK1 Y2H prey]
- ES, +His [4, 6]: -0.02174
- Z-Score, +His [4, 6]: -0.8853
- ES, -His [4, 7]: -0.1312
- Z-Score, -His [4, 7]: -0.1438
- ES, +His ([4]; Experiment 1, non-selective): -0.02593
- ES, -His ([4]; Experiment 1, selective): -0.1282
- ES, +His ([4]; Experiment 2, non-selective): -0.03529
- ES, -His ([4]; Experiment 2, selective): -0.1336
- ES, +His ([4]; Experiment 3, non-selective): -0.004005
- ES, -His ([4]; Experiment 3, selective): -0.1318
- ES, +His [5, 8]: -0.01644
- Z-Score, +His [5, 8]: -0.6905
- ES, -His [5, 9]: -0.1045
- Z-Score, -His [5, 9]: 0.2622
- ES, +His ([5]; Experiment 1, non-selective): 0.02832
- ES, -His ([5]; Experiment 1, selective): -0.1559
- ES, +His ([5]; Experiment 2, non-selective): -0.03889
- ES, -His ([5]; Experiment 2, selective): -0.03551
- ES, +His ([5]; Experiment 3, non-selective): -0.03876
- ES, -His ([5]; Experiment 3, selective): -0.1222

Compound: HLSRHKIIHIGIHT [ZNF493, D-site 14-mer in ELK1 Y2H prey]
- WT ES - mutant ES [2]: 0.221
- Z-score (ES) of hit sequences, WT ERK2 Y2H screen [3]: 5.90

Compound: ILLRRSLEAIELGL [KLC2, D-site 14-mer in ELK1 Y2H prey]
- WT ES - mutant ES [2]: 0.282
- Z-score (ES) of hit sequences, WT ERK2 Y2H screen [3]: 5.90

Compound: IRARRGLPRLAVSD [ISG20, D-site 14-mer in ELK1 Y2H prey]
- WT ES - mutant ES [2]: 0.761
- Z-score (ES) of hit sequences, WT ERK2 Y2H screen [3]: 14.42

Compound: LWTRRRSERIFLHD [TNRC18, D-site 14-mer in ELK1 Y2H prey]
- WT ES - mutant ES [2]: 0.332
- Z-score (ES) of hit sequences, WT ERK2 Y2H screen [3]: 7.78

Compound: LYKRRKESILTIQK [ASPM, D-site 14-mer, start residue 1508, in ELK1 Y2H prey]
- WT ES - mutant ES [2]: 0.329
- Z-score (ES) of hit sequences, WT ERK2 Y2H screen [3]: 7.80 and 6.10

Compound: PLFLRRKPVLSFQG [LIG3, D-site 14-mer in ELK1 Y2H prey]
- WT ES - mutant ES [2]: 0.487
- Z-score (ES) of hit sequences, WT ERK2 Y2H screen [3]: 10.87

Compound: RLLWRRLKPLILGK [ABCA7, D-site 14-mer in ELK1 Y2H prey]
- WT ES - mutant ES [2]: 0.266
- Z-score (ES) of hit sequences, WT ERK2 Y2H screen [3]: 5.86

Compound: RLQERRGSNVALML [PTPN7, D-site 14-mer in ELK1 Y2H prey]
- WT ES - mutant ES [2]: 0.474
- Z-score (ES) of hit sequences, WT ERK2 Y2H screen [3]: 9.09

Compound: RLRNRNCLELKIKD [ANKRD12, D-site 14-mer in ELK1 Y2H prey]
- WT ES - mutant ES [2]: 0.443
- Z-score (ES) of hit sequences, WT ERK2 Y2H screen [3]: 10.11
